Patent US20130306000A1, “Aflaxtoxin Resistant Poultry” (priority 2012, published 2013)

Key:
[1] = system: Turkey liver cytosolic GSTs; experiment: Turkey liver cytosolic GST activity toward substrates; format: biochemical; details: turkey liver cytosol
BHA-induced mouse liver = format: in vitro ADME

Row | Compound | activity of turkey liver cytosolic GSTs toward the substrate [1] | AFB1 detoxification, specific enzyme activity (BHA-induced mouse liver) [nmol/min per mg protein]
1 | O=[N+]([O-])c1ccc(Cl)c([N+](=O)[O-])c1 [CDNB, chlorodinitrobenezene] | active | 
2 | O=[N+]([O-])c1ccc(Cl)c(Cl)c1 [DCNB, dichlornitrobenzene] | active | 
3 | aflatoxin B1 [AFB1] |  | 0.426 ± 0.04
4 | exo-AFB1-8,9-epoxide [AFBO] | not toward | 
